Measured values taken from patent US4324728A, “Compound nanaomycin A and derivatives thereof and a process for producing the same” (The Kitasato Institute, priority 1976, dated 1982).
Values after ≈ are worked out from the molar mass of the structure shown. Like-named read-outs stand apart in the source and are kept apart here.

Columns and labels:
Trichophyton pedis 804 = experiment: Minimal inhibitory concentration (agar); format: cell-based; details: Trichophyton pedis, 804, 96 h, pH 6.4
Trichophyton ferrugineum = experiment: Minimal inhibitory concentration (agar); format: cell-based; details: potato agar, pH 6.4, 4 days, 27° C.
Trichophyton purpureum = experiment: Minimal inhibitory concentration (agar); format: cell-based; details: 96 h, pH 6.4
[1] = system: Aspergillus fumigatus IAM 2162; experiment: Minimal inhibitory concentration (agar); format: cell-based; details: IAM2162, 96 h, potato agar, pH 6.4, 4 days, 27° C.
Procedure: | P potato agar (pH 6.4, 4 days, 27° C.)

Trichophyton violaceum = experiment: Minimal inhibitory concentration (agar); format: cell-based; details: potato agar, pH 6.4, 4 days, 27° C.
[2] = system: Staphylococcus aureus FDA 209P (JC-1); experiment: Minimal inhibitory concentration (agar); format: cell-based; details: FDA209P, 48 h, nutrient agar, pH 7.0, 2 days, 37° C.
Procedure: (§1) Medium N nutrient agar (pH 7.0, 2 days, 37° C.)
(§2) MIC Minimal inhibitory concentration
(§3) N nutrient agar (pH 7.0, 2 days, 37° C.)

Sarcina lutea PCI 1001 = experiment: Minimal inhibitory concentration (agar); format: cell-based; details: Micrococcus luteus, PCI1001, 48 h, pH 7, nutrient agar, pH 7.0, 2 days, 37° C.; read-out: MIC
Procedure: as §1, §2, §3

[3] = system: Bacillus subtilis PCI 219; experiment: Minimal inhibitory concentration (agar); format: cell-based; details: Bacillus subtilis, PCI219, 48 h, pH 7, nutrient agar, pH 7.0, 2 days, 37° C.; read-out: MIC
Procedure: as §1, §2, §3

[4] = system: Escherichia coli NIHJ (JC-2); experiment: Minimal inhibitory concentration (agar); format: cell-based; details: 48 h, pH 7, nutrient agar, pH 7.0, 2 days, 37° C.
Procedure: as §1, §2, §3

Microsporum gypseum 704 = experiment: Minimal inhibitory concentration (agar); format: cell-based; details: Nannizzia gypsea, 704, 96 h; potato agar, pH 6.4, 4 days, 27° C.
Solubility = format: physicochemical
Salmonella typhimurium = experiment: Minimal inhibitory concentration (agar); format: cell-based; details: Salmonella enterica, 48 h, nutrient agar, pH 7.0, 2 days, 37° C.
Trichophyton asteroides = experiment: Minimal inhibitory concentration (agar); format: cell-based; details: potato agar, pH 6.4, 4 days, 27° C.
[5] = system: Proteus vulgaris IFO 3167; experiment: Minimal inhibitory concentration (agar); format: cell-based; details: IFO3167, 48 h, nutrient agar, pH 7.0, 2 days, 37° C.
Procedure: as §3

[6] = system: Staphylococcus aureus KB 64 (R-TC, EM); experiment: Minimal inhibitory concentration (agar); format: cell-based; details: 48 h, pH 7
Procedure: as §3

[7] = system: Corynebacterium paurometabolum; experiment: Minimal inhibitory concentration (agar); format: cell-based; details: Tsukamurella paurometabola, 48 h; nutrient agar, pH 7.0, 2 days, 37° C.
Procedure: as §3

[8] = system: Staphylococcus aureus KB 61 (R-TC, EM); experiment: Minimal inhibitory concentration (agar); format: cell-based; details: 48 h, pH 7
Procedure: as §3

Shigella sonnei E 33 = experiment: Minimal inhibitory concentration (agar); format: cell-based; details: E33, 48 h, nutrient agar, pH 7.0, 2 days, 37° C.
Procedure: as §3

[9] = system: Aerobacter aerogenes IAM 1183; experiment: Minimal inhibitory concentration (agar); format: cell-based; details: Klebsiella aerogenes, IAM1183, 48 h; nutrient agar, pH 7.0, 2 days, 37° C.
Procedure: as §3

[10] = system: Staphylococcus aureus FS 1227 (PC-R); experiment: Minimal inhibitory concentration (agar); format: cell-based; details: 48 h, nutrient agar, pH 7.0, 2 days, 37° C., penicillin resistant strain
Procedure: as §3

Proteus mirabilis = experiment: Minimal inhibitory concentration (agar); format: cell-based; details: 48 h, nutrient agar, pH 7.0, 2 days, 37° C.
Procedure: as §3

[11] = system: Pseudomonas aeruginosa P-3; experiment: Minimal inhibitory concentration (agar); format: cell-based; details: P3, 48 h, nutrient agar, pH 7.0, 2 days, 37° C.
Procedure: as §3

Bacillus cereus T = experiment: Minimal inhibitory concentration (agar); format: cell-based; details: 48 h, nutrient agar, pH 7.0, 2 days, 37° C.
Procedure: as §3

[12] = system: Mycobacterium smegmatis ATCC 607; experiment: Minimal inhibitory concentration (agar); format: cell-based; details: Mycolicibacterium smegmatis, ATCC607, 48 h; nutrient agar, pH 7.0, 2 days, 37° C.
Candida albicans = experiment: Minimal inhibitory concentration (agar); format: cell-based; details: pH 6.4, 4 days, 27° C.
Procedure: (§4) P potato agar (pH 6.4, 4 days, 27° C.)
as §2
(§5) Minimal inhibitory concentration was assayed by agar dilution method
(§6) (potato agar, pH 6.4, 27° C., 4 days).

Trichophyton rubrum = experiment: Minimal inhibitory concentration (agar); format: cell-based; details: pH 6.4, 4 days, 27° C.
Procedure: as §4, §2, §5, §6

Trichophyton schoenleini = experiment: Minimal inhibitory concentration (agar); format: cell-based; details: pH 6.4, 4 days, 27° C.
Procedure: as §4, §2, §5, §6

Trichophyton roseum = experiment: Minimal inhibitory concentration (agar); format: cell-based; details: Trichophyton, 96 h, pH 6.4, potato agar, pH 6.4, 4 days, 27° C.; read-out: MIC
[13] = system: parasite of the genus Tricophyton; experiment: Therapeutic effect on infectious diseases in guinea pigs and cattle; format: in vivo
Procedure: When dermatomycosis of cattle caused by mass infection of Trichophyton verrucosum is treated with nanaomycin A, nanaomycin A is dissolved or suspended in a suitable carrier, for example, olive oil, and is coated on the affected part directly with or without removal of the scales. […] The results obtained by once-coating of nanaomycin A and by twice-coating (the second coating is carried out a week after the first coating) are shown in Tables 2 and 3, respectively.

[14] = system: Aspergillus niger ATCC 6275; experiment: Minimal inhibitory concentration (agar); format: cell-based; details: ATCC6275, 96 h, potato agar, pH 6.4, 4 days, 27° C., read-out: MIC
[15] = system: Staphylococcus aureus FDA 209P; experiment: Minimal inhibitory concentration (agar); format: cell-based; details: FDA209P, 48 h, nutrient agar, pH 7.0, 2 days, 37° C.
[16] = system: Mycoplasma gallisepticum KP-13; experiment: Antimycoplasma activity, inhibition zone; format: cell-based; details: Eiken PPLO agar, pH 7.8, 8 days, 37° C.
Procedure: E Eiken PPLO agar (pH 7.8, 8 days, 37° C.)
(§7) Nanaomycin A and derivatives thereof according to the present invention are assayed in a similar manner to that designated as the paper disc method by Itoh, et al [J. of Antibiotics, 24, 855-859 (1971)], for example, as follows: […]

[17] = system: Trichophyton interdigitale; experiment: Minimal inhibitory concentration (agar); format: cell-based; details: potato agar, pH 6.4, 4 days, 27° C.
[18] = system: Trichophyton mentagrophytes; experiment: Minimal inhibitory concentration (agar); format: cell-based; details: 96 h, pH 6.4, potato agar, pH 6.4, 4 days, 27° C.
Piricularia oryzae = experiment: microbe, parasite or virus in culture; format: cell-based; details: 96 h, pH 6.4, potato agar, pH 6.4, 4 days, 27° C.
[19] = system: Acholeplasma laidlawii (A); experiment: Antimycoplasma activity, inhibition zone; format: cell-based; details: Hokken PPLO agar, pH 7.8, 8 days, 37° C.
Procedure: H Hokken PPLO agar (pH 7.8, 8 days, 37° C.)
as §7

Saccharomyces sake = experiment: Minimal inhibitory concentration (agar); format: cell-based; details: potato agar, pH 6.4, 4 days, 27° C.
[20] = system: mycoplasma, Gram-positive bacteria and tricophyton; experiment: Antimicrobial activity (in words); format: cell-based
Aspergillus niger = experiment: Minimal inhibitory concentration (agar); format: cell-based; details: potato agar, pH 6.4, 4 days, 27° C.
Procedure: as §5, §6, §4

Microsporum gypseum = experiment: Minimal inhibitory concentration (agar dilution method); format: cell-based; details: potato agar, pH 6.4, 27° C., 4 days
Procedure: as §5, §6

Aspergillus fumigatus = experiment: as above; format: cell-based; details: potato agar, pH 6.4, 27° C., 4 days
Procedure: as §5, §6

COC(=O)CC1CC2=C(C(=O)c3c(O)cccc3C2=O)C(C)O1 (stereo not shown) [Nanaomycin A methyl ester, nanaomycin A methyl ester]
MIC (Trichophyton pedis 804): 12.5 µg/mL (≈ 39.5 µM) | MIC (Trichophyton ferrugineum; Microsporum ferrugineum, 96 h, read-out: MIC): 12.5 µg/mL (≈ 39.5 µM) | MIC (Trichophyton purpureum): 12.5 µg/mL (≈ 39.5 µM) | MIC [1]: 100 µg/mL (≈ 316 µM) | MIC (Trichophyton violaceum; Trichophyton violaceum, 96 h, read-out: MIC): 12.5 µg/mL (≈ 39.5 µM) | MIC [2]: 25 µg/mL (≈ 79 µM) | MIC (Sarcina lutea PCI 1001): 25 µg/mL (≈ 79 µM) | MIC [3]: 25 µg/mL (≈ 79 µM) | MIC [4]: > 100 µg/mL | MIC (Microsporum gypseum 704): 1.6 µg/mL (≈ 5.06 µM) | Solubility in ether (Solubility; ether): Soluble | Solubility in methanol, ethanol, ethylacetate, chloroform and acetone (Solubility; methanol, ethanol, ethylacetate, chloroform, acetone): Soluble | Solubility in n-hexane and petroleum ether (Solubility; n-hexane, petroleum ether): Insoluble | Solubility in water (Solubility; water): Insoluble | MIC (Salmonella typhimurium): > 100 µg/mL | MIC (Trichophyton asteroides; Trichophyton, 96 h, read-out: MIC): 12.5 µg/mL (≈ 39.5 µM) | MIC [5]: > 100 µg/mL | MIC [6]: 12.5 µg/mL (≈ 39.5 µM) | MIC [7]: 25 µg/mL (≈ 79 µM) | MIC [8]: 12.5 µg/mL (≈ 39.5 µM) | MIC (Shigella sonnei E 33): > 100 µg/mL | MIC [9]: > 100 µg/mL | MIC [10]: 25 µg/mL (≈ 79 µM) | MIC (Proteus mirabilis): > 100 µg/mL | MIC [11]: > 100 µg/mL | MIC (Bacillus cereus T): 25 µg/mL (≈ 79 µM) | MIC [12]: 12.5 µg/mL (≈ 39.5 µM) | MIC (Candida albicans; Candida albicans, 96 h, pH 6.4, potato agar, read-out: MIC): > 100 µg/mL | MIC (Trichophyton rubrum; Trichophyton rubrum, 96 h, pH 6.4, potato agar, read-out: MIC): < 0.2 µg/mL | MIC (Trichophyton schoenleini; Trichophyton, 96 h, pH 6.4, potato agar, read-out: MIC): < 0.2 µg/mL | MIC (Trichophyton roseum): 0.8 µg/mL (≈ 2.53 µM) | therapeutic effect on Trichophyton infectious diseases [13]: inferior to those of nanaomycin A and acetylnanaomycin A | MIC [14]: > 100 µg/mL | MIC [15]: 12.5 µg/mL (≈ 39.5 µM) | Inhibition Zone [16]: 28.5 mm | MIC ([17]; Trichophyton interdigitale, 96 h, read-out: MIC): 12.5 µg/mL (≈ 39.5 µM) | MIC [18]: 6.3 µg/mL (≈ 19.9 µM) | MIC (Piricularia oryzae): 12.5 µg/mL (≈ 39.5 µM) | Inhibition Zone [19]: none | MIC (Saccharomyces sake; Saccharomyces, 96 h, read-out: MIC): 50 µg/mL (≈ 158 µM) | antimicrobial activity [20]: generally lower than those of other derivatives of nanaomycin A

ethylkalafunginate [reference compound]
MIC (Trichophyton ferrugineum): > 100 µg/mL | MIC (Trichophyton violaceum): > 100 µg/mL | MIC (Aspergillus niger): > 100 µg/mL | Minimal Inhibitory Con. (Microsporum gypseum): > 100 µg/mL | Minimal Inhibitory Con. (Aspergillus fumigatus): > 100 µg/mL | MIC (Trichophyton asteroides): > 100 µg/mL | MIC (Candida albicans; potato agar): > 100 µg/mL | MIC (Trichophyton rubrum; potato agar): > 100 µg/mL | MIC (Trichophyton schoenleini; potato agar): > 100 µg/mL | MIC [17]: > 100 µg/mL | MIC (Saccharomyces sake): > 100 µg/mL
